Measurements from patent US20260108455A1, “DEVICE FOR SUSTAINED CONTROLLED RELEASE OF A […] ACTIVE SUBSTANCE AND USES THEREOF” (Hylomorph AG, priority 2022, published 2026).
Where a name gives a salt, the structure may show the parent alone.

Key:
[1] = Drug elution testing (in vitro release) of PLGA films; assay type: physicochemical; conditions: all prototypes, phase 2
Text: The main goals are summarized below: • 1. Prepare placebo films with multiple grades of PLGA polymers (Table 1) using solvent casting method. Evaluate both single and dual layer film designs. • 2. […] Create HPLC assay and drug elution method based on provided information. Optimize method for use in formulation development.

[2] = Solubility in water (distilled and deionized water); assay type: physicochemical; conditions: 20 °C, pH 7, water, neutral pH, i.e. pH of 7 at room temperature
Method: Solubility is a chemical property of a molecule in a specific solvent which depends on the chemistry of the two and on the environmental conditions of temperature and pH. […] This at room temperature (20 deg) or body temperature (37 deg) and a pH of 7. Solubility is measured in distilled and deionized water and is given in mg/mL.

CN(C)c1ccc(O)c2c1C[C@H]1C[C@H]3[C@H](N(C)C)C(O)=C(C(N)=O)C(=O)[C@@]3(O)C(O)=C1C2=O [Minocycline HCl, Minocycline Hydrochloride]
degradation during elution testing [1]: Significant degradation

CO[C@H]1/C=C/O[C@@]2(C)Oc3c(C)c(O)c4c(O)c(c(/C=N/N5CCN(C)CC5)c(O)c4c3C2=O)NC(=O)/C(C)=C\C=C\[C@H](C)[C@H](O)[C@@H](C)[C@@H](O)[C@@H](C)[C@H](OC(C)=O)[C@@H]1C [Rifampicin]
solubility [2]: ≤ 2.5 mg/mL
